Reference: patent US20240383865A1, “HIGH-ENERGY-VIOLET-ABSORBING VINYLIC MONOMERS” (Alcon Inc., priority 2023, published 2024)
≈ marks a conversion by molar mass, not a printed value.

Tests used:
Type in all cases: physicochemical
[1] = Solubility of HEVL-absorbing vinylic monomers in 1-propanol
Description: This example illustrates the correlation between the melting point and solubility of HEVL-absorbing vinylic monomers of
As anticipated, solubility in 1-propanol is improved, reaching >4.0 mg/ml (Table 1).

[2] = UV/visible absorption spectra of dilute solutions (40 ppm, 1 cm cuvette); conditions: for UV/visible absorption profiles of UV28 and UV35 compared: 40 ppm, FIG. 3
[3] = Dissolution of benzotriazole monomer in lens formulations; conditions: for Dissolution in Lightstream formulation: formulations 6-1 (UV28) and 6-2 (UV35), mixing at room temperature then 40° C.; for Dissolution in thermally cured formulations: formulations 6-3 (UV28) and 6-4 (UV35), mixed at room temperature 1-2 hours
Description: All formulations in the amount of 10 g are mixed at room temperature for 1-2 hours. Following initial mixing, Lightstream formulations (6-1 and 6-2) are mixed for an additional 1-2 hours at 40° C. […] Both benzotriazoles-UV28 and UV35 dissolve in thermally cured formulations (6-3 and 6-4). Room temperature and refrigerated (3° C.) conditions are tested.

[4] = Absorption edge of germanium photoinitiators

| solubility ([1]; organic solvent or mixture, read-out: Solubility in PrOH) [µg/mL] | SMILES | Solubility in PrOH [1] [µg/mL] | Absorption Peak ([2]; 40 ppm in 1-propanol) [nm] | UV/visible absorption profiles of UV28 and UV35 compared [2] | Dissolution in Lightstream formulation [3] | Dissolution in thermally cured formulations [3] | Absorption edge [4] [nm] |
| --- | --- | --- | --- | --- | --- | --- | --- |
| – | C=C(C)C(=O)OCCCOc1cc(-n2nc3ccc(Cl)cc3n2)c(O)c(C(C)(C)C)c1 [UV28, 2-{2′-Hydroxy-3′-tert-butyl-5′-[3′-methacryloyloxypropoxy]phenyl}-5-chloro-2H-benzotriazole, reference compound] | 1500 (≈ 3.38 mM) | 364 | equivalent | does not dissolve | dissolve | – |
| – | CCc1ccccc1[C](=O)[Ge]([C](=O)c1ccccc1CC)([C](=O)c1ccccc1CC)[C](=O)c1ccccc1CC [TEB-Ge, tetrakis(2-ethylbenzoyl)-germanium] | – | – | – | – | – | 490 |
| – | C[CH2][Ge]([CH2]C)([C](=O)c1ccc(OC)cc1)[C](=O)c1ccc(OC)cc1 [BMBDE-Ge, Bis(4-methoxybenzoyl)diethylgermanium] | – | – | – | – | – | 470 |
| > 4000 | C=C(C)C(=O)OCCOCCOc1cc(-n2nc3ccc(Cl)cc3n2)c(O)c(C(C)(C)C)c1 [UV35, 2-propenoic acid, 2-methyl-, 2-[2-[3-(5-chloro-2H-benzotriazol-2-yl)-5-(1,1-dimethylethyl)-4-hydroxyphenoxy]ethoxy]ethyl ester] | >4000 | – | equivalent | dissolves completely | dissolve | – |
